Experimental data as given in patent US6497886B1, “1,3-bis-(N-lactamyl) propane and the pharmaceutical and cosmetic use thereof” (BASF Aktiengesellschaft, priority 1996, dated 2002).
Converted amounts (≈) assume the structure as drawn.

Tests used:
[1] = Saturation solubility of active ingredients in 1,3-bis(1-pyrrolidonyl)butane as solvent (Example 5); assay type: physicochemical; settings: 22 °C, organic solvent or mixture, thermodynamic from solid, stirred at room temperature for 72 hours, filtrate by UV photometry, read-out: maximum solubility at 22° C.
Experimental: It was stirred at room temperature for 72 hours.

[2] = Maximum soluble amount of active ingredient in cosolvent:water mixtures and phosphate buffer (Example 6); settings: for cosolvent quality mixed with water compared with propylene glycol: for hydrophilic active ingredients such as paracetamol, theophylline or trimethoprim
Experimental: To 20 ml 1,3-bis(1-pyrrolidonyl)butane was added the active ingredient in an amount which is above the amount of this active ingredient able to dissolve in this volume. It was stirred at room temperature for 72 hours. As a rule, this time ensured that the saturation solubility in the medium was reached. After subsequent filtration, the content of active ingredient in the filtrate was determined by UV photometry.
e) 1,2-Propylene glycol (1,2-PG):water (1:1)
f) 1,2-Propylene glycol (1,2-PG):water (1:3)

[3] = cited from earlier work
[4] = 25% 1,2-PG (1,2-propylene glycol:water 1:3), 20 ml
[5] = 25% DHVP (1,3-bis(1-pyrrolidonyl)butane:water 1:3), 20 ml
[6] = 50% 1,2-PG (1,2-propylene glycol:water 1:1), 20 ml
[7] = 50% DHVP (1,3-bis(1-pyrrolidonyl)butane:water 1:1), 20 ml
[8] = in 20 ml 25% 1,2-PG (1,2-propylene glycol:water 1:3)
[9] = in 20 ml 25% DHVP (1,3-bis(1-pyrrolidonyl)butane:water 1:3)
[10] = in 20 ml 50% 1,2-PG (1,2-propylene glycol:water 1:1)
[11] = in 20 ml 50% DHVP (1,3-bis(1-pyrrolidonyl)butane:water 1:1)
[12] = in 20 ml phosphate buffer pH 7.0
[13] = 25% DHVC (1,3-bis(1-caprolactamyl)butane:water 1:3), 20 ml
[14] = 50% DHVC (1,3-bis(1-caprolactamyl)butane:water 1:1), 20 ml
[15] = in 20 ml 25% DHVC (1,3-bis(1-caprolactamyl)butane:water 1:3)
[16] = in 20 ml 50% DHVC (1,3-bis(1-caprolactamyl)butane:water 1:1)

Compound | solubility at 72 h [1] | Solubility [%] [2, 4] | Solubility [%] [2, 5] | Solubility [%] [2, 6] | Solubility [%] [2, 7] | Solubility [%] ([2]; Phosphate buffer pH 7.0, 20 ml) | Dissolved substance [2, 8] | Dissolved substance [2, 9] | Dissolved substance [2, 10] | Dissolved substance [2, 11] | Dissolved substance [2, 12] | further results
CC(CCN1CCCC1=O)N1CCCC1=O (stereo not drawn) [Example 2, 1,3-Bis-(1-pyrrolidonyl)Butane] | – | – | – | – | – | – | – | – | – | – | – | cosolvent quality mixed with water compared with propylene glycol [2]: better cosolvents
CC(CCN1CCCCCC1=O)N1CCCCCC1=O (stereo not drawn) [Example 4, 1,3-Bis-(1-caprolactamyl)Butane] | – | – | – | – | – | – | – | – | – | – | – | cosolvent quality mixed with water compared with propylene glycol [2]: better cosolvents
OCC(O)CO [glycerol] | – | – | – | – | – | – | – | – | – | – | – | miscibility/solubility with fixed oils [3]: not soluble; miscibility with water ([3]; water): miscible
CC(O)CO (stereo not drawn) [propylene glycol] | – | – | – | – | – | – | – | – | – | – | – | miscibility/solubility with fixed oils [3]: immiscible
Cn1c(=O)c2[nH]cnc2n(C)c1=O [theophylline] | – | 1.00% | 1.30% | 1.54% | 1.85% | 0.59% | 0.1998 g | 0.2609 g | 0.3083 g | 0.3703 g | 0.1172 g | Solubility [%] [2, 13]: 1.55%; Solubility [%] [2, 14]: 2.74%; Dissolved substance [2, 15]: 0.3105 g; Dissolved substance [2, 16]: 0.5476 g

Further lines, with some results ahead:

solubility at 72 h [1] | Solubility [%] [2, 4] | Solubility [%] [2, 5] | Solubility [%] [2, 6] | Solubility [%] [2, 7] | Solubility [%] ([2]; Phosphate buffer pH 7.0, 20 ml) | Dissolved substance [2, 8] | Dissolved substance [2, 9] | Dissolved substance [2, 10] | Dissolved substance [2, 11] | Dissolved substance [2, 12] | Compound | further results
190 mg/mL (≈ 673 mM) | – | – | – | – | – | – | – | – | – | – | CCS(=O)(=O)Oc1ccc2c(C)c(C)c(=O)oc2c1 [Esuprone] | –
250 mg/mL (≈ 1650 mM) | 2.77% | 10.62% | 6.46% | 25.15% | 1.36% | 0.5537 g | 2.1244 g | 1.2914 g | 5.0298 g | 0.2718 g | CC(=O)Nc1ccc(O)cc1 [Paracetamol] | –
200 mg/mL (≈ 558 mM) | – | – | – | – | – | – | – | – | – | – | C[C@]12C=CC(=O)C=C1CC[C@@H]1[C@@H]2C(=O)C[C@@]2(C)[C@H]1CC[C@]2(O)C(=O)CO [Prednisone] | –
200 mg/mL (≈ 783 mM) | – | – | – | – | – | – | – | – | – | – | Nc1ccc(S(=O)(=O)Nc2nccs2)cc1 [Sulfathiazole] | –
150 mg/mL (≈ 517 mM) | 0.28% | 1.03% | 0.89% | 3.55% | 0.12% | 0.0558 g | 0.2063 g | 0.1785 g | 0.7097 g | 0.0245 g | COc1cc(Cc2cnc(N)nc2N)cc(OC)c1OC [Trimethoprim] | Solubility [%] [2, 13]: 1.69%; Solubility [%] [2, 14]: 5.09%; Dissolved substance [2, 15]: 0.3382 g; Dissolved substance [2, 16]: 1.0170 g
